Results: patent publication US20150342194A1, “NON-PHYTOTOXIC COMPOSITE POLYMER FILM BARRIER AS A REPELLENT FOR CONTROLLING INFECTION” (priority 2014, published 2015)

Key:
[1] = system: Vinca sp; assay: Phytotoxicity (plant tissue injury) testing on Vinca sp.; format: in vivo; design: key: −: No plant tissue damage; +: Minimal; ++: moderate; +++: severe plant tissue damage
Protocol: FIGS. 2A to 2C illustrate phytotoxicity (plant tissue injury) results. FIG. 2A illustrates untreated, FIG. 2B illustrates OSCF nanoparticle, and FIG. 2C illustrates OSCF nanogel film materials, sprayed on Vinca. sp. Under green-house conditions, approximately 5 mL of synthesized formula was sprayed on plants at 7:30 AM on the test day. After 72 hrs, all treatments were non-phytotoxic (−) to plants.
FIG. 1 illustrates digital photographs of some representative citrus leaf surfaces before and after rigorous spray washing with water (simulating over 6 inches of rainfall). Phytotoxicity studies were carried out using Vinca sp. (an ornamental plant, highly susceptible to phytotoxicity; purchased from Home Depot).
(§1) Tables 2 and 3, Example 2, illustrate phytotoxicity testing of embodiments of the present disclosure.

[2] = system: Citrus (Persian Lime); assay: Phytotoxicity testing on Citrus (Persian Lime); format: in vivo; design: key: −: No plant tissue damage; +: Minimal; ++: moderate; +++: severe plant tissue damage
Description: as §1

[3] = system: Tomato sp; assay: Phytotoxicity testing on Tomato sp; format: in vivo; design: key: −: No plant tissue damage; +: Minimal; ++: moderate; +++: severe plant tissue damage
Description: as §1

[4] = system: Asian Citrus Psyllid (ACP, Diaphorina citri); details: field trials, literature [7-9]; cited from earlier work
[5] = system: Asian Citrus Psyllid (ACP, Diaphorina citri); details: chemical repellants, literature [11-13]; cited from earlier work

Compound: O=S(=O)([O-])[O-].[Cu+2] [CuSO4]
- Phytotoxicity, plant tissue damage ([1]; 24 hr, Table 2): +
- Phytotoxicity, plant tissue damage ([1]; 24 hr, Table 3): +
- Phytotoxicity, plant tissue damage ([1]; 48 hr, Table 2): ++
- Phytotoxicity, plant tissue damage ([1]; 48 hr, Table 3): ++
- Phytotoxicity, plant tissue damage ([1]; 72 hr, Table 2): +++
- Phytotoxicity, plant tissue damage ([1]; 72 hr, Table 3): +++
- Phytotoxicity, plant tissue damage ([2]; 24 hr): +
- Phytotoxicity, plant tissue damage ([2]; 48 hr): ++
- Phytotoxicity, plant tissue damage ([2]; 72 hr): +++
- Phytotoxicity, plant tissue damage ([3]; 24 hr): +
- Phytotoxicity, plant tissue damage ([3]; 48 hr): ++
- Phytotoxicity, plant tissue damage ([3]; 72 hr): +++

Compound: CCOP(=S)(OCC)Oc1nc(Cl)c(Cl)cc1Cl [chlorpyrifos]
- Controlling ACP populations [4]: effective in controlling ACP populations

Compound: CN/C(=N\[N+](=O)[O-])NCc1cnc(Cl)s1 [clothianidin]
- Controlling ACP populations [4]: effective in controlling ACP populations

Compound: CSSC [dimethyldisulfide (DMDS), dimethyldisulfide]
- ACP repellant properties [5]: moderate ACP repellant properties

Compound: CC1(C)C(C(=O)OC(C#N)c2cccc(Oc3ccccc3)c2)C1(C)C (stereo not drawn) [fenpropathrin]
- Controlling ACP populations [4]: effective in controlling ACP populations

Compound: O=[N+]([O-])NC1=NCCN1Cc1ccc(Cl)nc1 [imidacloprid]
- Controlling ACP populations [4]: effective in controlling ACP populations

Compound: CN1COCN(Cc2cnc(Cl)s2)/C1=N\[N+](=O)[O-] [thiamethoxam]
- Controlling ACP populations [4]: effective in controlling ACP populations
